Reference: article PMC9181887, “In Vitro Antithrombotic, Hematological Toxicity, and Inhibitor Studies of Protocatechuic, Isovanillic, and p-Hydroxybenzoic Acids from Maclura tricuspidata (Carr.) Bur” (Molecules, 2022)
Read-outs that look alike come from different tables or passages of the source.

How the values were obtained:
[1] = test system: thrombin-activated platelets; experiment: ATP release assay; format: cell-based; settings: 10–100 μg, vs thrombin group, p < 0.05; except 10 μg of 4-HA (p = 0.915)
Method: Figure 7 Effect of PA, IVA, and 4-HA on granule secretion. Aliquots of washed platelets pre-treated with or without the compounds for 5 min were stimulated with 0.25 U/mL thrombin at 37 °C for 5 min. After stimulation, the platelets were centrifuged, and the supernatants were collected. Using these supernatants, ATP (A) or serotonin (B) release was determined according to the manufacturer’s instructions. Each value is the mean ± SD of triplicate measurements. # p < 0.01, compared to each control groups. * p < 0.05 and ** p < 0.01, compared to only thrombin-treated control groups. Thrombin, thrombin treated only; PA10-100, 10–100 μg of PA treated; IVA10-100, 10–100 μg of IVA treated; 4-HA10-100, 10–100 μg of 4-HA treated.
Aliquots of washed platelets (250 × 10^6/mL) pre-treated with the compounds for 5 min were activated with 0.25 U/mL of thrombin for 5 min at 37 °C, according to a previously described method, with slight modifications. After activation, the supernatant from centrifuged platelets was used. ATP release was evaluated using an ATP assay kit (Biomedical Research Service Center, Buffalo, NY, USA), according to the manufacturer’s instructions.

leukocytes = experiment: Hematological study, leukocyte count by hemocytometer; format: cell-based; settings: 10 min, vs control
Method: Figure 1 Blood cytotoxic effect of PA (A), IVA (B), and 4-HA (C). Aliquots of washed platelets (10^3/mL), erythrocytes (10^6/mL), and leukocytes (10^3/mL) were treated with or without the compounds for 10 min and cell number was determined by hemocytometer counts. Each value is the mean ± SD of triplicate measurements. * p < 0.05 and ** p < 0.01, compared to each control groups. 10–500, 10–100 μg of each compound treated.
Total white blood cells (leukocytes) and red blood cells (erythrocytes) were counted using a hemocytometer, as previously described. Blood was diluted 1:200 with Hayem’s fluid and the cells were counted in a loaded hemocytometer chamber. To count the blood platelets, blood was diluted in a ratio of 1:20 with a diluting fluid, and four large (1 mm^2) corner squares of the hemocytometer were counted under a light microscope. Aliquots of leukocytes (0.1 mL; 10^3/mL), erythrocytes (0.1 mL; 10^6/mL), and platelets (0.1 mL; 10^3/mL) were treated with or without the compounds for 10 min.

human FXa = molecular target: T1, human FXa (Homo sapiens, UniProt P00742); experiment: FXa activity and kinetic/inhibitor assay; format: biochemical; settings: for FXa activity: 1–20 μg, vs control, p < 0.05; for IC50 / Kik/Kiv / Kcat / Vmax / Ki: FXa; for inhibition type against FXa: from Kik/Kiv ratio and Lineweaver–Burk plots
T1 construct: purchased Sigma-Aldrich
T1 sequence (P00742 235-488 limits assumed): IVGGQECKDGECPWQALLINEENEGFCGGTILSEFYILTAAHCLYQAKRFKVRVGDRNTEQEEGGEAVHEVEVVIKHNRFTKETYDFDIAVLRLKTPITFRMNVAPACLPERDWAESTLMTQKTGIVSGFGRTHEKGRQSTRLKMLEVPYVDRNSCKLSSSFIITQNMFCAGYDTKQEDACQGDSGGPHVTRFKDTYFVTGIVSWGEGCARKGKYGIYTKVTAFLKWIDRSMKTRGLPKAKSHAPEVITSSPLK
T1 sequence (P00742 41-179 limits assumed): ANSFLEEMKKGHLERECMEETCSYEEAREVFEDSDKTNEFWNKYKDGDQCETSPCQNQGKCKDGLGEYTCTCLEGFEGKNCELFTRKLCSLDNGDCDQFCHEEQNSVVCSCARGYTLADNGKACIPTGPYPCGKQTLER
Method: To determine the thrombin activity, various concentrations of compounds were treated with 1 U human thrombin in 100 μL of 20 mM Tris-HCl, as previously described. The reaction solutions were incubated for 15 min at 37 °C. After the incubation, 1 mM chromogenic substrate for thrombin (S-2238, HD-Phe-Pip-Arg-p-nitroanilide) was added and incubated for 1 h at 37 °C. Absorbance was measured at 405 nm to determine the enzymatic activity. To determine FXa activity, various concentrations of the compounds were mixed with 1 U human FXa in 20 mM Tris-HCl (pH 7.4) in volume of 100 μL, followed by incubation for 15 min at 37 °C. After adding 1 mM N-benzoyl-Ile-Glu-Gly-Arg-p-nitroanilide, a highly specific chromogenic peptide substrate for FXa, the reaction solutions were incubated for 1 h at 37 °C. The residual activity of FXa was measured at 405 nm and is presented as a percentage of inhibition. To investigate FXIIIa activity, various concentrations of the compounds were mixed with 1 U human FXIIIa in 20 mM Tris-HCl (pH 7.4) in a volume of 100 μL, followed by, incubation for 15 min at 37 °C as previously described. The residual activity of FXIIIa was measured using casein and fibrinogen-HRP, according to the manufacturer’s instructions, and was presented as a percentage of inhibition. The negative control was generated by treatment with only thrombin, FXa, or FXIIIa without treatment with any compound.
Kinetic assays were performed using PA, IVA, and 4-HA for procoagulant proteases (thrombin and FXa) and fibrinoligase (FXIIIa). The kinetic constants were calculated using Lineweaver–Burk plots based on the initial reaction rates with different concentrations (0.1, 0.5, 1, and 2 mM) of each substrate for thrombin, FXa, and FXIIIa treated with or without the compounds (0.065, 0.13, 0.33, 0.65, and 1.30 mM [1–20 μg]) in a total volume of 100 μL. The Michaelis–Menten constant (Km) and maximal velocity (Vmax) were calculated from the x and y intercepts, respectively. […] The median inhibitory concentration (IC50) was defined as the concentration required to reach a 50% reduction in the activity of the three target factors. The Kik and Kiv inhibition constants were calculated using a previously described method. The inhibition type of the compounds against the three target factors was evaluated according to a previously described inhibition type definition.

[2] = test system: fibrin polymers and clots (fibrinogen, thrombin, CaCl2); experiment: Turbidity assay of fibrin polymer/clot formation; format: biochemical, Human; settings: 1, 2, 5, 10, and 20 μg; 2000 s
Method: Inhibition of fibrin clot formation was determined using a turbidity assay as previously described. The reaction mixtures were prepared by the addition of the compounds, 10 IU u-PA as a positive control (PC), or vehicle as a negative control (NC) 2 in a volume of 100 μL of 5 mM CaCl2, 0.5 U/mL of thrombin, and […] fibrinogen in 20 mM Tris-HCl (pH 7.4). The mixture was incubated for 5 min at 37 °C, and turbidity was monitored at 405 nm every 1 min for 2000 s using a microplate reader (Molecular Devices, Sunnyvale, CA, USA). The clot density was presented as a percentage of inhibition.

[3] = read-out: Kiv (inhibition constant using Vmax)

SMILES | thrombin-stimulated ATP secretion levels [1] | effect on leukocyte number (leukocytes; 10–50 μg/mL) | FXa activity (human FXa) | IC50 (human FXa) [mM] | Kik/Kiv (human FXa) | Kcat (human FXa; compound 0.065 mM (1 μg)) [s⁻¹] | Vmax (human FXa; compound 0.065 mM (1 μg)) [mU/min] | Kcat (human FXa; compound 0.13 mM (2 μg)) [s⁻¹] | Vmax (human FXa; compound 0.13 mM (2 μg)) [mU/min] | Kcat (human FXa; compound 0.325 mM (5 μg)) [s⁻¹] | Vmax (human FXa; compound 0.325 mM (5 μg)) [mU/min] | Kcat (human FXa; compound 0.65 mM (10 μg)) [s⁻¹] | Vmax (human FXa; compound 0.65 mM (10 μg)) [mU/min] | Kcat (human FXa; compound 1.3 mM (20 μg)) [s⁻¹] | Vmax (human FXa; compound 1.3 mM (20 μg)) [mU/min] | Ki (human FXa; read-out: Ki) [mM] | Ki (human FXa; [3]) [mM] | inhibition type against FXa (human FXa) | fibrin polymer/clot formation (turbidity at 405 nm) [2] | effect on leukocyte number (leukocytes; 10–100 μg/mL)
O=C(O)c1ccc(O)cc1 [4-HA, 4-hydroxybenzoic acid] | significantly decreased | did not cause any effect | significant reductions | 4.01 | 5.3 | 22.14 ± 0.22 | 0.60 ± 0.03 | 21.77 ± 0.26 | 0.59 ± 0.02 | 21.79 ± 0.44 | 0.59 ± 0.04 | 21.18 ± 0.42 | 0.57 ± 0.02 | 20.22 ± 0.37 | 0.55 ± 0.02 | 3.99 | 0.109 | non-competitive inhibition | dose-dependently inhibited | 
COc1ccc(C(=O)O)cc1O [IVA, isovanillic acid] | significantly decreased | did not cause any effect | significant reductions | 4.21 | 5.6 | 24.20 ± 0.27 | 0.66 ± 0.04 | 22.34 ± 0.41 | 0.61 ± 0.02 | 22.23 ± 0.35 | 0.60 ± 0.03 | 20.67 ± 0.32 | 0.56 ± 0.03 | 18.56 ± 0.30 | 0.50 ± 0.04 | 4.19 | 0.075 | non-competitive inhibition | dose-dependently inhibited | 
O=C(O)c1ccc(O)c(O)c1 [PA, protocatechuic acid] | significantly decreased |  | significant reductions | 3.09 | 1.6 | 21.36 ± 0.54 | 0.58 ± 0.03 | 17.35 ± 0.48 | 0.47 ± 0.02 | 14.67 ± 0.25 | 0.40 ± 0.02 | 12.09 ± 0.29 | 0.33 ± 0.01 | 11.62 ± 0.31 | 0.32 ± 0.01 | 3.07 | 0.023 | uncompetitive inhibition type | dose-dependently inhibited | did not cause any effect
